Assay results published in ChEMBL document CHEMBL4270540, “Collagen Prolyl 4-Hydroxylase as a Therapeutic Target” (J Med Chem, 2018).
pIC50: −log10 of the molar value.

Key:
[1] = Inhibition of collagen prolyl 4-hydroxylase (unknown origin); parameters: species or system Homo sapiens
[2] = Inhibition of chicken collagen prolyl 4-hydroxylase; parameters: species or system Gallus gallus
[3] = Inhibition of collagen prolyl 4-hydroxylase (unknown origin) using 2-ketoglutarate as co-factor assessed as formation of [14C]succinate by ion-exchnage chromatographic method; parameters: species or system Homo sapiens

Row | Compound | pIC50 [3] | further results
1 | COc1ccc(S(=O)(=O)NC(=O)c2ccc(C(=O)O)nc2)cc1 |  | pIC50 [1]: 6.00
2 | O=C(O)c1ncc2ccccc2c1O |  | pIC50 [2]: 6.72
3 | O=C(O)c1nnc2ccccc2c1O |  | pIC50 [2]: 7.70
4 | C[C@H](NC(=O)C(=O)O)C(=O)O | 4.42 | 
5 | C[C@@H](NC(=O)C(=O)O)C(=O)O | 3.21 | 
6 | CC(NC(=O)C(=O)O)C(=O)O (racemic) | 4.04 | 
7 | O=C(O)CNC(=O)C(=O)O [N-OXALYLGLYCINE] | 5.54 | 
8 | O=C(O)c1ccc(C(=O)O)nc1 [PYRIDINE-2,5-DICARBOXYLIC ACID] |  | pIC50 [1]: 5.26
